Here are results for 11 compounds from US11566007B2, “Ras inhibitors” (Revolution Medicines, Inc., priority 2019, dated 2023).

Experiment [1] deals with NCI-H358 cells (K-Ras G12C). The experiment is described as follows: Potency assay: pERK in NCI-H358 cells. The class given is cell-based, human. The following applies: Homo sapiens, NCI-H358; H358 KRAS G12C; read-out: pERK EC50. The method in brief: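 Compounds are dosed as ten 3-fold dilutions from a 10 mM DMSO stock, in duplicate, and left on cells for 4 h at 37 °C, 5% CO2. Phospho-ERK1/2 is then quantified by AlphaLISA SureFire Ultra or In-Cell Western, and IC50 is derived from a 4-parameter sigmoid against log concentration.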

A further experiment concerns NCI-H358 (K-Ras G12C). The experiment is described as follows: CellTiter-Glo cell viability assay, NCI-H358. Format: cell-based, human. The following applies: Homo sapiens, NCI-H358, 120 h, class symbols; for pIC50: NCI-H358, 5-day treatment, read-out: Additional H358 Cell Viability assay data (K-Ras G12C, IC50); for IC50: read-out: Additional H358 Cell Viability assay data (K-Ras G12C, IC50, uM), NCI-H358, 5-day treatment. An outline of the steps:
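Luminescent viability readout on day 5 after direct compound addition to plated cells; plates sat ~30 min at room temperature before reading. Values expressed as percent of mean DMSO signal, curves fit with a four-parameter logistic model.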

pEC50, pIC50: −log10 of the molar value. Read-outs that look alike come from different tables or passages of the source.

`C=CC(=O)N1C[C@H](C)[C@H](C(=O)N(C)[C@H](C(=O)N[C@H]2Cc3cc(O)cc(c3)-c3ccc4c(c3)c(c(-c3ccccc3CN(C)C)n4CC)CC(C)(C)COC(=O)[C@@H]3CCCN(N3)C2=O)C(C)C)C1` [Example A52]: in experiment [1], the pEC50 was greater than 5.30. Moreover, the pIC50 with NCI-H358 (K-Ras G12C) was 7.00 to 8.00.
On to `CCn1c(-c2cccnc2COC)c2c3cc(ccc31)-c1cc(O)cc(c1)C[C@H](NC(=O)[C@H](C(C)C)N(C)C(=O)[C@H]1CCN(C(=O)/C=C/CN(C)C)C1)C(=O)N1CCC[C@H](N1)C(=O)OCC(C)(C)C2` [Example A54, (2S)-2-{1-[(3S)-1-[(2E)-4-(dimethylamino)but-2-enoyl]pyrrolidin-3-yl]-N-methylformamido}-N-[(8S,14S)-22-ethyl-4-hydroxy-21-[2-(methoxymethyl)pyridin-3-yl]-18,18-dimethyl-9,15-dioxo-16-oxa-10,22,28-triazapentacyclo[18.5.2.1^2,^6.1^10,^14.0^23,^27]nonacosa-1(26),2,4,6(29),20,23(27),24-heptaen-8-yl]-3-methylbutanamide], for which the pEC50 in experiment [1] was greater than 5.30. In addition, the pIC50 in the experiment on NCI-H358 (K-Ras G12C) is 7.00 to 8.00.
On the same counts, the results for `C=CC(=O)N1CC[C@H](C(=O)N(C)[C@H](C(=O)N[C@H]2Cc3cc(O)cc(c3)-c3ccc4c(c3)c(c(-c3cccnc3COC)n4CC)CC(C)(C)COC(=O)[C@@H]3CCCN(N3)C2=O)C2CCCC2)C1` [Example A55] are greater than 5.30 and greater than 8.00.
Turning to `C=CC(=O)N1C[C@H](C)[C@H](C(=O)N(C)[C@H](C(=O)N[C@H]2Cc3cc(O)cc(c3)-c3ccc4c(c3)c(c(-c3cccnc3COC)n4CC)CC(C)(C)COC(=O)[C@@H]3CCCN(N3)C2=O)C(C)C)C1` [Example A56], the pEC50 in experiment [1] is greater than 5.30. The IC50 in the experiment on NCI-H358 (K-Ras G12C) is less than 0.01 µM.
As for `C=CC(=O)N1C[C@H](C)[C@H](C(=O)N(C)[C@H](C(=O)N[C@H]2Cc3cc(O)cc(c3)-c3ccc4c(c3)c(c(-c3cccnc3COC)n4CC)CC(C)(C)COC(=O)[C@@H]3CCCN(N3)C2=O)C2CCCC2)C1` [Example A57], the pEC50 in experiment [1] is greater than 5.30. Besides, the pIC50 with NCI-H358 (K-Ras G12C) was greater than 8.00.
The like results for `C=CC(=O)N1CC[C@H](C(=O)N(C)[C@H](C(=O)N[C@H]2Cc3cc(O)cc(c3)-c3ccc4c(c3)c(c(C3=C(COC)COCC3)n4CC)CC(C)(C)COC(=O)[C@@H]3CCCN(N3)C2=O)C(C)C)C1` [Example A58] were, in that order, greater than 5.30 and 7.00 to 8.00.
In the case of `C=CC(=O)N1CC[C@H](C(=O)N(C)[C@H](C(=O)N[C@H]2Cc3cc(OC(C)=O)cc(c3)-c3ccc4c(c3)c(c(-c3ccccc3CN(C)C)n4CC)CC(C)(C)COC(=O)[C@@H]3CCCN(N3)C2=O)C(C)C)C1` [Example A59], in experiment [1], the pEC50 is greater than 5.30. The IC50 in the experiment on NCI-H358 (K-Ras G12C) was 0.1 to 1 µM.
`C=CC(=O)N1CC[C@H](C(=O)N(C)[C@H](C(=O)N[C@H]2Cc3cc(O)cc(c3)-c3ccc4c(c3)c(c(-c3cccnc3N3CC(OC)C3)n4CC)CC(C)(C)COC(=O)[C@@H]3CCCN(N3)C2=O)C(C)C)C1` [Example A60]: the pEC50 in experiment [1] is greater than 5.30. In addition, the pIC50 in the experiment on NCI-H358 (K-Ras G12C) is 7.00 to 8.00.
In the case of `C=CC(=O)N1CC[C@H](C(=O)N(C)[C@H](C(=O)N[C@H]2Cc3cc(O)cc(c3)-c3ccc4c(c3)c(c(-c3cncnc3)n4CC)CC(C)(C)COC(=O)[C@@H]3CCCN(N3)C2=O)C(C)C)C1` [Example A61], in experiment [1], the pEC50 is greater than 5.30. The pIC50 in the experiment on NCI-H358 (K-Ras G12C) was 7.00 to 8.00.
As for `C=CC(=O)N1CC[C@H](C(=O)N(C)[C@H](C(=O)N[C@H]2Cc3cc(O)cc(c3)-c3ccc4c(c3)c(c(-c3cncc(C#N)c3)n4CC)CC(C)(C)COC(=O)[C@@H]3CCCN(N3)C2=O)C(C)C)C1` [Example A62], the pEC50 in experiment [1] is greater than 5.30. In the experiment on NCI-H358 (K-Ras G12C), the pIC50 was 7.00 to 8.00.
On the same counts, the results for `C=CC(=O)N1CC[C@@]2(CCCN([C@H](C(=O)N[C@H]3Cc4cc(O)cc(c4)-c4ccc5c(c4)c(c(-c4ccccc4CCOC)n5CC)CC(C)(C)COC(=O)[C@@H]4CCCN(N4)C3=O)C(C)C)C2=O)C1` [Example A63] are greater than 5.30 and 6.00 to 7.00.
